Patent publication US8889874B2, “Imidazolone-chalcone derivatives as potential anticancer agent and process for the preparation thereof” (Council of Scientific and Industrial Research, priority 2010, dated 2014)
Like-named read-outs stand apart in the source and are kept apart here.

Key:
Format in all cases: cell-based, human
[1] = tested on: HCT-15 (colon); experiment: NCI anticancer screen, SRB assay, 48 h; details: Homo sapiens
How it was run: (§1)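 Compounds were tested across fifty three human cancer cell lines from nine tumour types. Each line got a dose-response curve of at least five concentrations at 10-fold dilutions, with continuous drug exposure and sulforhodamine B protein staining to estimate viability or growth.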

[2] = tested on: TD-47D (breast); experiment: NCI anticancer screen, SRB assay, 48 h; details: Homo sapiens
How it was run: as §1

[3] = tested on: HOP-92 (non-small cell lung); experiment: NCI anticancer screen, SRB assay, 48 h; details: Homo sapiens
How it was run: as §1

[4] = tested on: K-562 (leukemia cell line); experiment: NCI anticancer screen, SRB assay, 48 h; details: Homo sapiens
How it was run: as §1

[5] = tested on: NCI-H460 (non-small cell lung); experiment: NCI anticancer screen, SRB assay, 48 h; details: Homo sapiens
How it was run: as §1

[6] = tested on: MDA-MB-435 (melanoma); experiment: NCI anticancer screen, SRB assay, 48 h; details: Homo sapiens
How it was run: as §1

[7] = tested on: SNB-75 (CNS); experiment: NCI anticancer screen, SRB assay, 48 h; details: Homo sapiens
How it was run: as §1

[8] = tested on: MDA-MB-231/ATCC (breast); experiment: NCI anticancer screen, SRB assay, 48 h; details: Homo sapiens
How it was run: as §1

[9] = tested on: NCI-H23 (non-small cell lung); experiment: NCI anticancer screen, SRB assay, 48 h; details: Homo sapiens
How it was run: as §1

[10] = tested on: HS 578T (breast); experiment: NCI anticancer screen, SRB assay, 48 h; details: Homo sapiens
How it was run: as §1

[11] = tested on: HCT-116 (colon); experiment: NCI anticancer screen, SRB assay, 48 h; details: Homo sapiens
How it was run: as §1

[12] = tested on: OVCAR-4 (ovarian); experiment: NCI anticancer screen, SRB assay, 48 h; details: Homo sapiens
How it was run: as §1

[13] = tested on: HCC-2998 (colon); experiment: NCI anticancer screen, SRB assay, 48 h; details: Homo sapiens
How it was run: as §1

[14] = tested on: SK-MEL-28 (melanoma); experiment: NCI anticancer screen, SRB assay, 48 h; details: Homo sapiens
How it was run: as §1

[15] = tested on: HOP-62 (non-small cell lung); experiment: NCI anticancer screen, SRB assay, 48 h; details: Homo sapiens
How it was run: as §1

[16] = tested on: UO-31 (renal); experiment: NCI anticancer screen, SRB assay, 48 h; details: Homo sapiens
How it was run: as §1

[17] = tested on: Melanoma cancer cell lines; experiment: NCI anticancer screen, SRB assay, panel summary; details: for GI50: Homo sapiens
Method: (§2) Some of biological activity studies were carried out at the National Cancer Institute (NCI), Maryland, USA.
(§3) The compounds were evaluated for anticancer activity against fifty three human cancer cells derived from nine cancer types (leukemia cell line, non-small-cell lung cell line, colon cell line, CNS cell line, melanoma cell line, ovarian cell line, prostate cell line, and breast cancer cell line) as shown in Table 1. For each compound, dose response curves for each cell line were measured at a minimum of five concentrations at 10 fold dilutions. A protocol of 48 h continuous drug exposure was used and a sulforhodamine B (SRB) protein assay was used to estimate cell viability or growth.

[18] = tested on: Renal cancer cell lines; experiment: NCI anticancer screen, SRB assay, panel summary; details: Homo sapiens
Method: as §2, §3

[19] = tested on: Prostate cancer cell lines; experiment: NCI anticancer screen, SRB assay, panel summary
Method: as §2, §3

[20] = tested on: Breast cancer cell lines; experiment: NCI anticancer screen, SRB assay, panel summary; details: Homo sapiens
Method: as §2, §3

[21] = tested on: CNS cancer cell lines; experiment: NCI anticancer screen, SRB assay, panel summary; details: for GI50: Homo sapiens
Method: as §2, §3

[22] = tested on: Non-small cell lung cancer cell lines; experiment: NCI anticancer screen, SRB assay, panel summary; details: Homo sapiens
Method: as §2, §3

[23] = tested on: Colon cancer cell lines; experiment: NCI anticancer screen, SRB assay, panel summary; details: for GI50: Homo sapiens
Method: as §2, §3

[24] = tested on: Ovarian cancer cell lines; experiment: NCI anticancer screen, SRB assay, panel summary; details: Homo sapiens
Method: as §2, §3

[25] = tested on: Leukemia cancer cell lines; experiment: NCI anticancer screen, SRB assay, panel summary; details: Homo sapiens
Method: as §2, §3

[26] = 48 h exposure, SRB, read-out: GI50
[27] = read-out: pGI50 (-log of molar concentration causing 50% inhibition of net cell growth) (converted)

O=C(/C=C/c1cccc(O)c1)c1cccc(-n2cc(-c3ccc4ccccc4c3)[nH]c2=O)c1 [12b, 1-3-[(E)-3-(3-hydroxyphenyl)-2-propenoyl]phenyl-4-(2-naphthyl)-2,3-dihydro-1H-2-imidazolone]
GI50 [1, 26]: 1560 nM | GI50 [1, 27]: 1550 nM | GI50 [2, 26]: 1110 nM | GI50 [2, 27]: 1120 nM | GI50 [3, 26]: 510 nM | GI50 [3, 27]: 513 nM | GI50 ([4]; K562, 48 h exposure, SRB, read-out: GI50): 1430 nM | GI50 ([4]; K562, read-out: pGI50 (-log of molar concentration causing 50% inhibition of net cell growth) (converted)): 1450 nM | GI50 [5, 26]: 1670 nM | GI50 [5, 27]: 1660 nM | GI50 [6, 26]: 1710 nM | GI50 [6, 27]: 1700 nM | GI50 [7, 26]: 1880 nM | GI50 [7, 27]: 1860 nM | GI50 [8, 26]: 1660 nM | GI50 [8, 27]: 1660 nM | GI50 [9, 26]: 1520 nM | GI50 [9, 27]: 1510 nM | GI50 [10, 26]: 2010 nM | GI50 [10, 27]: 2000 nM | GI50 [11, 26]: 400 nM | GI50 [11, 27]: 398 nM | GI50 [12, 26]: 1680 nM | GI50 [12, 27]: 1700 nM | GI50 [13, 26]: 2130 nM | GI50 [13, 27]: 2140 nM | GI50 [14, 26]: 3.79 µM | GI50 [14, 27]: 3.8 µM | GI50 [15, 26]: 2260 nM | GI50 [15, 27]: 2240 nM | GI50 [16, 26]: 1260 nM | GI50 [16, 27]: 1260 nM | GI50 ([17]; Melanoma panel, log of concentration in mol/L causing 50% inhibition of net cell growth, read-out: mean graph midpoint (MG_MID) of Log10 GI50 (converted)): 1950 nM | GI50 ([17]; nine melanoma cancer cell lines, exposure at least 48 hrs, read-out: GI50, range over the panel): 850 to 4130 nM | mean graph midpoint (MG_MID) of Log10 LC50 ([17]; Melanoma panel, log of concentration leading to 50% net cell death): 4.62 | GI50 ([18]; Renal panel, log of concentration in mol/L causing 50% inhibition of net cell growth, read-out: mean graph midpoint (MG_MID) of Log10 GI50 (converted)): 8.91 µM | LC50 ([18]; Renal panel, log of concentration leading to 50% net cell death, read-out: mean graph midpoint (MG_MID) of Log10 LC50 (converted)): 10.2 µM | GI50 ([18]; eight renal cancer cell lines, exposure at least 48 hrs, read-out: GI50, range over the panel): 1.26 to 3.45 µM | GI50 ([19]; Homo sapiens, log of concentration in mol/L causing 50% inhibition of net cell growth, read-out: mean graph midpoint (MG_MID) of Log10 GI50 (converted)): 1860 nM | LC50 ([19]; Homo sapiens, log of concentration leading to 50% net cell death, read-out: mean graph midpoint (MG_MID) of Log10 LC50 (converted)): 79.4 µM | mean graph midpoint (MG_MID) of Log10 TGI ([19]; log of concentration resulting in total inhibition of net cell growth): 5.10 | GI50 ([20]; Breast panel, log of concentration in mol/L causing 50% inhibition of net cell growth, read-out: mean graph midpoint (MG_MID) of Log10 GI50 (converted)): 1290 nM | LC50 ([20]; Breast panel, log of concentration leading to 50% net cell death, read-out: mean graph midpoint (MG_MID) of Log10 LC50 (converted)): 31.6 µM | GI50 ([20]; five breast cancer cell lines, exposure at least 48 hrs, read-out: GI50, range over the panel): 470 to 2010 nM | mean graph midpoint (MG_MID) of Log10 LC50 ([21]; CNS panel, log of concentration leading to 50% net cell death): 5.04 | GI50 ([21]; CNS panel, log of concentration in mol/L causing 50% inhibition of net cell growth, read-out: mean graph midpoint (MG_MID) of Log10 GI50 (converted)): 1480 nM | GI50 ([21]; six CNS cancer cell lines, exposure at least 48 hrs, read-out: GI50, range over the panel): 1090 to 1880 nM | GI50 ([22]; Non-small cell lung panel, log of concentration in mol/L causing 50% inhibition of net cell growth, read-out: mean graph midpoint (MG_MID) of Log10 GI50 (converted)): 1740 nM | LC50 ([22]; Non-small cell lung panel, log of concentration leading to 50% net cell death, read-out: mean graph midpoint (MG_MID) of Log10 LC50 (converted)): 20 µM | GI50 ([22]; nine non-small cell lung cancer cell lines, exposure at least 48 hrs, read-out: GI50, range over the panel): 510 to 3380 nM | mean graph midpoint (MG_MID) of Log10 LC50 ([23]; Colon panel, log of concentration leading to 50% net cell death): 5.08 | GI50 ([23]; Colon panel, log of concentration in mol/L causing 50% inhibition of net cell growth, read-out: mean graph midpoint (MG_MID) of Log10 GI50 (converted)): 1020 nM | GI50 ([23]; seven colon cancer cell lines, exposure at least 48 hrs, read-out: GI50, range over the panel): 220 to 2130 nM | GI50 ([24]; Ovarian panel, log of concentration in mol/L causing 50% inhibition of net cell growth, read-out: mean graph midpoint (MG_MID) of Log10 GI50 (converted)): 1820 nM | LC50 ([24]; Ovarian panel, log of concentration leading to 50% net cell death, read-out: mean graph midpoint (MG_MID) of Log10 LC50 (converted)): 25.7 µM | GI50 ([24]; six ovarian cancer cell lines, exposure at least 48 hrs, read-out: GI50, range over the panel): 1330 to 2330 nM | GI50 ([25]; Leukemia panel, log of concentration in mol/L causing 50% inhibition of net cell growth, read-out: mean graph midpoint (MG_MID) of Log10 GI50 (converted)): 1550 nM | LC50 ([25]; Leukemia panel, log of concentration leading to 50% net cell death, read-out: mean graph midpoint (MG_MID) of Log10 LC50 (converted)): ≥ 100 µM | GI50 ([25]; two leukemia cancer cell lines (RPMI-8226 and K-562), exposure at least 48 hrs, read-out: GI50, range over the panel): 1430 to 1670 nM
